System: not given
Assay: not given
Settings: not given

| melting point [°C] | Structure (SMILES) |
| --- | --- |
| 192 to 193 | Cc1nc2c3c(c(C(=O)NN4CC4)cc2n1C)CCC(c1ccccc1)N3 (centres unmarked) |
| 167 to 170 | Cc1nc2c3c(c(C(=O)N(C)C)cc2n1C)CCC(c1ccccc1)N3 (centres unmarked) [Example 2, 2,3-Dimethyl-8-phenyl-6,7,8,9-tetrahydro-3H-imidazo[4,5-h]quinoline-5-carboxylic Acid Dimethylamide] |
| 264 to 267 | Cc1nc2c3c(c(C(N)=O)cc2n1C)CCC(c1ccccc1)O3 (centres unmarked) [Example 3, 2,3-Dimethyl-8-phenyl-3,6,7,8tetrahydro-chromeno[7,8-d]imidazole-5-carboxylic Acid Amide] |
| 228 to 229 | Cc1nc2c3c(c(C(=O)NCCO)cc2n1C)CCC(c1ccccc1)O3 (centres unmarked) [Example 5, 2,3 Dimethyl-8-phenyl-3,6,7,8-tetrahydro-chromeno[7,8-d]imidazole-5-carboxylic Acid (2-Hydroxy-ethyl)-amide] |
| 254 to 256 | COCCNC(=O)c1cc2c(nc(C)n2C)c2c1CCC(c1ccccc1)O2 (centres unmarked) [Example 6, 2,3-Dimethyl-8-phenyl-3,6,7,8-tetrahydro-chromeno[7,8-d]imidazole-5-carboxylic Acid (2-Methoxy-ethyl)amide] |
| 291 to 293 | Cc1nc2c3c(c(C(=O)N4CCOCC4)cc2n1C)CCC(c1ccccc1)O3 (centres unmarked) [Example 7, 1-(2,3-Dimethyl-8-phenyl-3,6,7,8-tetrahydro-chromeno[7,8-d]imidazol-5-yl)-1-morpholin-4-yl-methanone] |
| 179 to 180 | CC(C)c1nc2c3c(c(C(=O)N(C)C)cc2n1C)CCC(c1ccccc1)O3 (centres unmarked) [Example 9, 2-Isopropyl-3-methyl-8-phenyl-3,6,7,8-tetrahydro-chromeno[7,8-d]imidazole-5-carboxylic Acid Dimethylamide] |
| 176 to 179 | CN(C)C(=O)c1cc2c(nc(C3CC3)n2C)c2c1CCC(c1ccccc1)O2 (centres unmarked) [Example 10, 2-Cyclopropyl-3-methyl-8-phenyl-3,6,7,8-tetrahydro-chromeno[7,8-d]imidazole-5-carboxylic Acid Dimethylamide] |
| 204 to 205 | COCc1cc2c(nc(C)n2C)c2c1CCC(c1ccccc1)O2.O=C(O)C(=O)O (centres unmarked) [Example 11, 5-Methoxymethyl-2,3-dimethyl-8-phenyl-3,6,7,8-tetrahydro-chromeno[7,8-d]imidazole Oxalic Acid] |
| 131 to 133 | COCCOCc1cc2c(nc(C)n2C)c2c1CCC(c1ccccc1)O2.O=C(O)C(=O)O (centres unmarked) [Example 12, 5-(2-Methoxy-ethoxymethyl)-2,3-dimethyl-8-phenyl-3,6,7,8-tetrahydro-chromeno[7,8-d]-imidazole Oxalic Acid] |
| 201 to 204 | Cc1nc2c3c(c(C(=O)N4CC4)cc2n1C)CCC(c1ccccc1)O3 (centres unmarked) [Example 13, 1-Aziridin-1-yl-(2,3-dimethyl-8-phenyl-3,6,7,8-tetrahydro-chromeno[7,8-d]imidazol-5-yl)-methanone] |
| 223 to 225 | CN(C)C(=O)c1cc2c(nc(C(F)(F)F)n2C)c2c1CCC(c1ccccc1)O2 (centres unmarked) [Example 14, 3-Methyl-8-phenyl-2-trifluoromethyl-3,6,7,8-tetrahydro-chromeno[7,8-d]imidazole-5-carboxylic Acid Dimethylamide] |
| 172 to 173 | CCOC(=O)c1cc2c(nc(C)n2C)c2c1CCC(c1ccccc1)O2 (centres unmarked) [Example 15, 2,3-Dimethyl-8-phenyl-3,6,7,8-tetrahydro-chromeno[7,8-d]imidazole-5-carboxylic Acid Ethyl Ester] |
| 323 to 326 | Cc1nc2c3c(c(C(=O)O)cc2n1C)CCC(c1ccccc1)O3 (centres unmarked) [Example 16, 2,3-Dimethyl-8-phenyl-3,6,7,8-tetrahydro-chromeno[7,8-d]imidazole-5-carboxylic Acid] |
| 279 to 281 | Cc1nc2c3c(c(CO)cc2n1C)CCC(c1ccccc1)O3 (centres unmarked) [Example 17, (2,3-Dimethyl-8-phenyl-3,6,7,8-tetrahydro-chromeno[7,8-d]imidazol-5-yl)methanol] |
| 273 | CCCNC(=O)c1cc2c(nc(C)n2C)c2c1CCC(c1ccccc1)O2 (centres unmarked) [Example 19, 2,3Dimethyl-8-phenyl-3,6,7,8-tetrahydro-chromeno[7,8-d]imidazole-5-carboxylic Acid Propyl-amide] |
| 268 to 270 | Cc1nc2c3c(c(C(=O)NCC(O)CO)cc2n1C)CCC(c1ccccc1)O3 (centres unmarked) [Example 21, 2,3-Dimethyl-8-phenyl-3,6,7,8tetrahydro-chromeno[7,8-d]imidazole-5-carboxylic Acid (2,3-Dihydroxy-propyl)amide] |
| 213 to 215 | COCn1c(C)nc2c3c(c(C(=O)N(C)C)cc21)CCC(c1ccccc1)O3 (centres unmarked) [Example 22, 3Methoxymethyl-2-methyl-8-phenyl-3,6,7,8-tetrahydro-chromeno[7,8-d]imidazole-5-carboxylic Acid Dimethylamide] |
| 214 to 216 | CC(=O)N(C)c1cc2c(nc(C)n2C)c2c1CCC(c1ccccc1)O2 (centres unmarked) [Example 23, N-(2,3-Dimethyl-8-phenyl-3,6,7,8-tetrahydro-chromeno[7,8-d]imidazol-5-yl)-N-methyl-acetamide] |
| 195 to 197 | CCc1nc2c3c(c(C(=O)N(C)C)c(-c4ccccc4)c2n1C)CCCO3 [Example 24, 2-Ethyl-3-methyl-4-phenyl-3,6,7,8-tetrahydro-chromeno[7,8-d]imidazole-5-carboxylic Acid Dimethylamide] |
| 185 to 186 | CCOC(=O)c1cc2c(nc(C)n2C)c2c1CCC(c1ccccc1)N2 (centres unmarked) [Example 25, Ethyl 2,3-dimethyl-8-phenyl-6,7,8,9-tetrahydro-3H-imidazo[4,5-h]quinoline-5-carboxylate] |
| 325 to 326 | Cc1nc2c3c(c(C(=O)O)cc2n1C)CCC(c1ccccc1)N3 (centres unmarked) [Example 26, 2,3-Dimethyl-8-phenyl-6,7,8,9-tetrahydro-3H-imidazo[4,5-h]quinoline-5-carboxylic Acid] |
| 311 to 319 | Cc1nc2c3c(c(C(N)=O)cc2n1C)CCC(c1ccccc1)N3 (centres unmarked) [Example 28, 2,3-Dimethyl-8-phenyl-6,7,8,9-tetrahydro-3H-imidazo[4,5-h]quinoline-5-carboxylic Acid Amide] |
| 259 | CNC(=O)c1cc2c(nc(C)n2C)c2c1CCC(c1ccccc1)N2 (centres unmarked) [Example 29, 2,3-Dimethyl-8-phenyl-6,7,8,9-tetrahydro-3H-imidazo[4,5-h]quinoline-5-carboxylic Acid Methylamide] |
| 253 to 254 | Cc1nc2c3c(c(CO)cc2n1C)CCC(c1ccccc1)N3 (centres unmarked) [Example 31, 5-Hydroxymethyl-2,3-dimethyl-8-phenyl-6,7,8,9tetrahydro-3H-imidazo[4,5-h]quinoline] |
| 312 to 313 | Cc1nc2c3c(c(C(=O)NC4CC4)cc2n1C)CCC(c1ccccc1)O3 (centres unmarked) [Example 35, 2,3-Dimethyl-8-phenyl-3,6,7,8-tetrahydro-chromeno[7,8-d]imidazole-5-carboxylic Acid Cyclopropylamide] |
| 161 to 164 | Cc1nc2c3c(ccc2n1C)CCC(c1ccccc1)O3 (centres unmarked) [Example 36, 2,3-Dimethyl-8-phenyl-3,6,7,8-tetrahydro-chromeno[7,8-d]imidazole] |

System: pentagastrin-stimulated acid secretion of the perfused rat stomach
Assay: Testing of the secretion-inhibiting action on the perfused rat stomach
Settings: dose 1 μmol/kg i.d. (intraduodenal), perfused stomach of anesthetized female CD rat, in vivo
Excerpt: In Table A which follows, the influence of the compounds according to the invention on the pentagastrin-stimulated acid secretion of the perfused rat stomach after intraduodenal administration in vivo is shown.
The abdomen of anesthetized rats (CD rat, rat, female, 200-250 g; 1.5 g/kg l.m. urethane) was opened after trachetomy by a median upper abdominal incision and a PVC catheter was fixed transorally in the esophagus and another via the pylorus such that the ends of the tubes just projected into the gastric lumen. The catheter leading from the pylorus led outward into the right abdominal wall through a side opening.
After thorough rinsing (about 50-100 ml), warm (37° C.) physiological NaCl solution was continuously passed through the stomach (0.5 ml/min, pH 6.8-6.9; Braun-Unita 1). The pH (pH meter 632, glass electrode EA 147; φ=5 mm, Metrohm) and, by titration with a freshly prepared 0.01N NaOH solution to pH 7 (Dosimat 665 Metrohm), the secreted HCl were determined in the effluent in each case collected at an interval of 15 minutes.
The gastric secretion was stimulated by continuous infusion of 1 μg/kg (=1.65 ml/h) of i.v. pentagastrin (left femoral vein) about 30 min after the end of the operation (i.e. after determination of 2 preliminary fractions). The substances to be tested were administered intraduodenally in a 2.5 ml/kg liquid volume 60 min after the start of the continuous pentagastrin infusion.
The body temperature of the animals was kept at a constant 37.9-38° C. by infrared irradiation and heat pads (automatic, stepless control by means of a rectal temperature sensor).

| Structure (SMILES) | Inhibition of acid secretion [%] |
| --- | --- |
| CNC(=O)c1cc2c(nc(C)n2C)c2c1CC[C@@H](c1ccccc1)N2 [32 (8S), (8S)-2,3-dimethyl-8-phenyl-6,7,8,9-tetrahydro-3H-imidazo[4,5-h]quinoline-5-carboxylic acid methylamide] | >50 |
| Cc1nc2c3c(c(C(=O)N(C)C)cc2n1C)CC[C@@H](c1ccccc1)O3 [33 (8S), (8S)-2,3-Dimethyl-8-phenyl-3,6,7,8-tetrahydro-chromeno[7,8-d]imidazole-5-carboxylic Acid Dimethylamide] | >50 |
| Cc1nc2c3c(c(C(=O)N(C)C)cc2n1C)CCC(c1ccccc1)O3 (centres unmarked) [Example 1, 2,3-Dimethyl-phenyl-3,6,7,8-tetrahydro-chromeno[7,8-a]imidazole-5-carboxylic Acid Dimethylamide] | >50 |
| Cc1nc2c3c(c(C(=O)N(C)C)cc2n1C)CCC(c1ccccc1)N3 (centres unmarked) [Example 2, 2,3-Dimethyl-8-phenyl-6,7,8,9-tetrahydro-3H-imidazo[4,5-h]quinoline-5-carboxylic Acid Dimethylamide] | >50 |
| CNC(=O)c1cc2c(nc(C)n2C)c2c1CCC(c1ccccc1)O2 (centres unmarked) [Example 4, 2,3-Dimethyl-8-phenyl-4,6,7,8-tetrahydro-chromeno[7,8-d] imidazole-5-carboxylic Acid Methylamide] | >50 |
| CN(C)C(=O)c1cc2c(nc(C3CC3)n2C)c2c1CCC(c1ccccc1)O2 (centres unmarked) [Example 10, 2-Cyclopropyl-3-methyl-8-phenyl-3,6,7,8-tetrahydro-chromeno[7,8-d]imidazole-5-carboxylic Acid Dimethylamide] | >50 |
| Cc1nc2c3c(c(C(=O)N4CCC4)cc2n1C)CCC(c1ccccc1)O3 (centres unmarked) [Example 18, 1-Azetidin-1-yl-1-(2,3-dimethyl-8-phenyl-3,6,7,8-tetrahydro-chromeno[7,8-d]imidazol-5-yl)-methanone] | >50 |
| CNC(=O)c1cc2c(nc(C)n2C)c2c1CCC(c1ccccc1)N2 (centres unmarked) [Example 29, 2,3-Dimethyl-8-phenyl-6,7,8,9-tetrahydro-3H-imidazo[4,5-h]quinoline-5-carboxylic Acid Methylamide] | >50 |

Reference: patent publication US7307084B2, “Cyclic benzimidazoles” (Altana Pharma AG, priority 2003, dated 2007)
